Experimental data published in PMC7782499, “Progerinin, an optimized progerin-lamin A binding inhibitor, ameliorates premature senescence phenotypes of Hutchinson-Gilford progeria syndrome” (Communications Biology, 2021).
Values joined by “and” are separate entries in the source; they are usually repeats but may differ in a detail not shown here. Equal entries are not always repeated. Where two headings read alike, the source gives them in different places.

Tests used:
H3K9me3 = H3K9me3 expression in HGPS cells; format: cell-based, human; conditions: for H3K9me3 positive cells after treatment with chemicals, Ave / H3K9me3 positive cells after treatment with chemicals / H3K9me3 intensity: AG03198; for H3K9me3 positive cells after treatment with chemicals, Ave: average; for H3K9me3 positive cells after treatment with chemicals: single replicates
Method: Fig. 1 SLC-D011 ameliorates premature aging features of HGPS. A. HEK293 cells were transiently transfected with expression vector encoding wild-type lamin A (WT-LA), lamin A-C661A (LA-C661A), progerin, or progerin-C611A. LA-C661A or progerin-C611A with point mutation in CaaX motif was predicted to be lack of farnesylation, […] that of authentic WT-LA or progerin. GFP-conjugated empty expression vector was used as a negative control. Cells were visualized at 24 h after transfection. B Transient transfection of HEK293 cells with expression vector encoding progerin or […] leads to reduced expression of H3K9me3 (n = 3 independent experiments; two-tailed Student’s t test). C. JH4 derivatives (JH010 and SLC-D011(D011)) inhibit lamin A and progerin interaction. For binding inhibition assay, bead-conjugated lamin A (GST-LA) was incubated with HEK293 cells, transiently transfected with GFP-progerin (PG), and treated with indicated chemicals. Actin was used as a loading control. PPT, co-precipitated materials with recombinant proteins; Sup supernatant. 5 μM of each chemical was used for binding assay. […] H3K9me3 reduction is a well-known marker for premature aged cells. Thus, H3K9me3 expression was evaluated by immunostaining. […] E SLC-D011 obviously suppresses progerin expression. For progerin expression analysis, each chemical was used to treat HGPS cells (AG03198, Coriell Cell Repositories) for 7 days. […] F SLC-D011 reduces the expression of progerin in other HGPS cells (AG11513 and AG11498, Coriell Cell Repositories). Treatment with SLC-D011 (2 μM) for 7 days reduced the expression of progerin and p16/INK4A but induced the expression of H3K9me3. […] G JH4, JH010, and SLC-D011 promote cell proliferation. Cell viability was determined by MTT assay after incubation with chemicals for 7 days (n = 3 independent experiments; two-tailed Student’s t test). H JH4, JH010, and SLC-D011 show similar activity for ameliorating nuclear deformation. After incubation with chemicals for 7 days, cells were stained with progerin and H3K9me3 antibodies (n = 3 independent experiment; two-tailed Student’s t test), **p < 0.001. Data are reported as mean ± SD. “Con” means Dimethyl sulfoxide (DMSO)-treated control. The data are normalized to DMSO-treated cells.
Cells were cultured on coverslips, washed with PBS, fixed with 4% paraformaldehyde (PFA) for 30 min at RT, and then permeabilized with 0.2% Triton X-100 at RT for 5 min. After treatment with blocking solution (anti-Human antibody diluted 1:400 in PBS) for 1 h, cells were incubated with anti-lamin A/C (1:400), anti-progerin (1:100), Ki67 (1:200), and anti-H3K9me3 (1:200) in blocking buffer overnight at 4 °C. Finally, cells were incubated with fluorescein isothiocyanate and rhodamine-conjugated secondary antibodies at 4 °C for 7 h. Nuclei were stained with DAPI (4, 6-diamidino-2-phenylindole) at RT for 10 min. After cells were washed three times with PBS, coverslips were mounted with mounting solution (H-5501; Vector Laboratories, Burlingame, CA, USA). Immunofluorescence signal was detected with a fluorescence microscopy (Zeiss and Logos).
For nuclear deformation cell counting, immunofluorescence staining was performed with lamin A or progerin antibodies. After staining, abnormal nuclear membrane was counted in randomly selected fields and expressed as percentages or actual numbers of total cells counted. Abnormalities of nuclear membrane were determined based on the following: (1) lamin A/C or progerin lining was extruded or engulfed, (2) having at least one bleb, and (3) irregular contour. Counting of cells with nuclear deformation was performed by three independent observers who were blinded to chemical treatment group. To analyze histone H3K9me3 intensity or expression, images were quantified using “color histogram” function of Image J software (National Institute of Health, NIH). Fluorescence intensities were subtracted by background signals.

HGPS cells = experiment: Cell proliferation of HGPS cells (MTT assay, cell counting); format: cell-based, human; conditions: for Cell proliferation (rate): 7 days, normalized to DMSO-treated cells; for Cell counting after treatment with chemicals, Ave / Cell proliferation after treatment with SLC-D011, Ave: average; for Cell counting after treatment with chemicals / Cell proliferation after treatment with SLC-D011: single replicates
Method: To determine the cellular viability, cells were treated with lonafarnib or SLC-D011 for 2 weeks. For MTT assay, cells were incubated with 0.5 mg/ml of 3-(4,5-dimethythiazol-2-yl)-2,5-diphenyl tetrazolium bromide (MTT) solution for 6 hr at 37 °C. After removing MTT solution, the precipitated materials were dissolved in […] DMSO and quantified by measuring the absorbance at 540 nm.
Fig. S4. Ef fect s of J H4, J H010, and SLC-D011 in ameliorating nuclear deformation of HGPS fibroblasts.
A. JH4, JH010, and SLC-D011 increase population of HGPS cells (n = 3 independent experiment; two-
tailed Student’s t -test), **p<0.001. […]
DAPI indicated DNA. C. Treatment with SLC-D011 (1 µM) for 7 days increased
cell proliferation in three different HGPS cells but not in normal fibroblasts (n = 3 independent experiments;
two-tailed Student’s t-test), **p < 0.001, N.S: not significant. AU, arbitrary units. […]

[1] = In vivo pharmacokinetic (PK) analysis, intravenous and oral; set-up: species or system rats; conditions: for bioavailability: read-out: Bioavailability (BA)
Method: A. In vivo pharmacokinetic (PK) analysis of JH010 (performed in rats). […] B Effect of SLC-D011 on human ERG (hERG). […] C In vivo pharmacokinetic analysis of SLD-D011. […] HEK293 cells transiently transfected with GFP-PG vectors were treated with SLC-D011 for 24 hr (n = 3 independent experiment; two-tailed Student’s t test). […] “Con” means dimethyl sulfoxide (DMSO)-treated control.
At pre-set time-points, blood concentration of JH4 was determined by LC-MS/MS analysis[22],[23]. Other chemicals were also tested using similar protocol. In vitro ADME studies (plasma protein binding, CYP inhibition, microsomal stability, plasma stability, and hERG inhibition) were performed by New Drug Development Center (Daegu, Korea) using standard protocols[24],[25].

CC1(C)Oc2cc3oc(=O)ccc3cc2CC1OC(=O)C=Cc1cccnc1 (stereo not shown) [JH4]
H3K9me3 positive cells after treatment with chemicals, Ave (H3K9me3; 2μM): 14.5
H3K9me3 positive cells after treatment with chemicals (H3K9me3; 2μM): 13 and 17 and 15 (2×) and 11 and 16
H3K9me3 positive cells after treatment with chemicals, Ave (H3K9me3; 5μM): 21.6667
H3K9me3 positive cells after treatment with chemicals (H3K9me3; 5μM): 27 and 16 and 20 and 22 (2×) and 23
H3K9me3 positive cells after treatment with chemicals, Ave (H3K9me3; 10μM): 27
H3K9me3 positive cells after treatment with chemicals (H3K9me3; 10μM): 30 and 29 and 24 and 25 and 27 (2×)
Cell proliferation (rate) (HGPS cells; AG03198, 2uM): 1.267 and 1.276 and 1.118 and 1.25 and 1.333 and 1.2963
Cell proliferation (rate) (HGPS cells; AG03198, 2uM, mean): 1.257
Cell proliferation (rate) (HGPS cells; AG03198, 5uM): 1.833 and 1.759 and 1.647 and 1.964 and 1.667 and 1.926
Cell proliferation (rate) (HGPS cells; AG03198, 5uM, mean): 1.799
Cell counting after treatment with chemicals, Ave (HGPS cells; AG11513): 28
Cell counting after treatment with chemicals (HGPS cells; AG11513): 22 and 29 and 19 and 40 and 32 and 37 and 17 and 28
AUCINF_obs, Mean ([1]; intravenous 5mg/kg (n=3)): 1.4 ng·h/mL
AUCall, Mean ([1]; intravenous 5mg/kg (n=3)): 1.3 ng·h/mL
MRTINF_obs, Mean ([1]; intravenous 5mg/kg (n=3)): 0.2 h
T1/2, Mean ([1]; intravenous 5mg/kg (n=3)): 6 min
Vss_obs, Mean ([1]; intravenous 5mg/kg (n=3)): 673.9 L/kg
Plasma concentration, Mean ([1]; intravenous 5mg/kg (n=3), 0.08 hr): 4.7 ng/mL
Plasma concentration, Mean ([1]; intravenous 5mg/kg (n=3), 0.25 hr): 1.5 ng/mL
Plasma concentration, Mean ([1]; intravenous 5mg/kg (n=3), 0.5 hr): 0.6 ng/mL
Half-life after in vivo oral administration ([1]; oral 10 mg/kg): extremely short

CC1(C)Oc2cc3oc(=O)ccc3cc2C[C@@H]1OC/C=C/c1ccccc1 [SLC-D011]
H3K9me3 intensity (H3K9me3): 0.227 AU and 0.219 AU and 0.255 AU and 0.254 AU
H3K9me3 positive cells after treatment with chemicals, Ave (H3K9me3; 2μM): 19.5
H3K9me3 positive cells after treatment with chemicals (H3K9me3; 2μM): 15 and 23 and 20 and 19 and 22 and 18
H3K9me3 positive cells after treatment with chemicals, Ave (H3K9me3; 5μM): 25.1667
H3K9me3 positive cells after treatment with chemicals (H3K9me3; 5μM): 20 and 24 and 27 and 28 and 29 and 23
H3K9me3 positive cells after treatment with chemicals, Ave (H3K9me3; 10μM): 29
H3K9me3 positive cells after treatment with chemicals (H3K9me3; 10μM): 24 and 33 and 32 and 30 and 29 and 26
H3K9me3 intensity (H3K9me3; mean): 0.2387 AU
Effect on H3K9me3 expression (H3K9me3; HGPS cells): induce H3K9me3 expression
Cell proliferation (rate) (HGPS cells; AG03198, 2uM): 1.467 and 1.31 and 1.235 and 1.393 and 1.367 and 1.407
Cell proliferation (rate) (HGPS cells; AG03198, 2uM, mean): 1.363
Cell proliferation (rate) (HGPS cells; AG03198, 5uM): 2.067 and 2.103 and 1.735 and 2.25 and 2.2 and 2.259
Cell proliferation (rate) (HGPS cells; AG03198, 5uM, mean): 2.102
Cell counting (HGPS cells; AG03198, 0.1μM, Ave): 13.375
Cell counting (HGPS cells; AG03198, 0.1μM, individual replicate): 15 and 16 and 14 and 8 and 13 and 12
Cell counting (HGPS cells; AG03198, 0.2μM, Ave): 12.25
Cell counting (HGPS cells; AG03198, 0.2μM, individual replicate): 11 and 14 and 12 and 13 and 16 and 10
Cell counting (HGPS cells; AG03198, 0.5μM, Ave): 13.625
Cell counting (HGPS cells; AG03198, 0.5μM, individual replicate): 15 and 13 and 17 and 11 and 10 and 12 and 18
Cell counting (HGPS cells; AG03198, 1μM, Ave): 18
Cell counting (HGPS cells; AG03198, 1μM, individual replicate): 17 and 21 and 26 and 16 and 13
Cell proliferation after treatment with SLC-D011, Ave (HGPS cells; AG03198): 2.85 AU
Cell proliferation after treatment with SLC-D011 (HGPS cells; AG03198): 2.5 AU (2×) and 2.2 AU and 2.7 AU and 3.3 AU and 3.7 AU and 3 AU and 2.9 AU
Cell proliferation after treatment with SLC-D011, Ave (HGPS cells; AG11498): 3.325 AU
Cell proliferation after treatment with SLC-D011 (HGPS cells; AG11498): 3.3 AU (2×) and 3.6 AU and 2.9 AU and 3.5 AU and 3.4 AU and 3.9 AU and 2.7 AU
Cell counting after treatment with chemicals, Ave (HGPS cells; AG11513): 29.75
Cell proliferation after treatment with SLC-D011, Ave (HGPS cells; AG11513): 2.875 AU
Cell counting after treatment with chemicals (HGPS cells; AG11513): 20 (2×) and 29 and 32 and 37 and 42 and 33 and 25
Cell proliferation after treatment with SLC-D011 (HGPS cells; AG11513): 2 AU (2×) and 2.9 AU and 3.2 AU and 3.3 AU (2×) and 3.8 AU and 2.5 AU
Cell proliferation after treatment with SLC-D011, Ave (HGPS cells; N9): 3.975 AU
Cell proliferation after treatment with SLC-D011 (HGPS cells; N9): 3.9 AU and 4.2 AU (2×) and 3.8 AU (2×) and 4 AU and 4.4 AU and 3.5 AU
Concentration promoting cell proliferation and ameliorating nuclear abnormality (HGPS cells; direct cell counting assay, HGPS cells): 100 nM
bioavailability ([1]; rat, blood, oral, 10 mg/kg): 58.1%
Cmax ([1]; rat, blood, oral 5mg/kg (n=3)): 29.7 ng/mL
Tmax ([1]; rat, blood, oral 5mg/kg (n=3)): 2.7 h
AUC ([1]; rat, blood, oral 5mg/kg (n=3), read-out: AUCall, Mean): 144 ng·h/mL
bioavailability ([1]; rat, blood, oral 5 mg/kg): 65.9%
